Assay results as given in patent US20090047243A1, “COMBINATIONS FOR THE TREATMENT OF B-CELL PROLIFERATIVE DISORDERS” (priority 2007, published 2009).
Structures can show the parent of a compound that is named as a salt. Where two headings read alike, the source gives them in different places.

How the values were obtained:
[1] = tested on: human multiple myeloma cells (MM.1S); experiment: Anti-proliferation assay (ATPLite, 72 h); assay type: cell-based; design: key to synergy score / synergy (score), PDEi × HE-NECA: S = lnfX·lnfY·ΣIdata(Idata−ILoewe), volume over Loewe additivity; conditions: for inhibition at 1.17 µM: ADAC 1.17 μM; for inhibition at 3.51 µM: ADAC 3.51 μM; for inhibition at 10.5 µM: ADAC 10.5 μM; for inhibition at 31.6 µM: ADAC 31.6 μM
Outline: (§1)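 Cell viability was read by ATPLite luminescence after compound exposure. ANBL6 medium carried 10 ng/ml IL-6. Compounds were serially diluted 2- or 3-fold over 12 concentrations for single-agent curves, and percent inhibition was calculated relative to the mean of untreated wells.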

[2] = tested on: RPMI-8226, H929, MM.1S and MM.1R MM cell lines; experiment: Anti-proliferation assay, statements across MM cell lines; assay type: cell-based, human; conditions: for activity and synergy of adenosine receptor agonists: RPMI-8226, H929, MM.1S and MM.1R MM cell lines
Procedure: The MM.1S, MM.1R, H929, MOLP-8, EJM, INA-6, ANBL6, KSM-12-PE, OPM2, and RPMI-8226 multiple myeloma cell lines, as well as the Burkitt's lymphoma cell line GA-10 and the non-Hodgkin's lymphoma cell lines Farage, SU-DHL6, and Karpas 422 were cultured at 37° C. and 5% CO2 in RPMI-1640 media supplemented with 10% FBS. ANBL6 and INA-6 culture media was also supplemented with 10 ng/ml IL-6. The OCI-ly10 cell line was cultured using RPMI-1640 media supplemented with 20% human serum. MM.1S, MM.1R, OCI-ly10, Karpas 422, and SU-DHL6 cells were provided by the Dana Farber Cancer Institute. H929, RPMI-8226, GA-10, and Farage cells were from ATCC (Cat #'s CCL-155, CRL-9068, CRL-2392 and CRL-2630 respectively). MOLP-8, EJM, KSM-12-PE, and OPM2 were from DSMZ. The ANBL6 and INA-6 cell lines were provided by the M. D. Anderson Cancer Research Center.
Compounds were prepared in DMSO at 1000× the highest desired concentration. Master plates were generated consisting of serially diluted compounds in 2- or 3-fold dilutions in 384-well format. For single agent dose response curves, the master plates consisted of 9 individual compounds at 12 concentrations in 2- or 3-fold dilutions. For combination matrices, master plates consisted of individual compounds at 6 or 9 concentrations at 2- or 3-fold dilutions.
Cells were added to 384-well plates 24 hours prior to compound addition such that each well contained 2000 cells in 35 μL of media. Master plates were diluted 100× (1 μL into 100 μL) into 384-well dilution plates containing only cell culture media. 4.5 μL from each dilution plate was added to each assay plate for a final dilution of 1000×. To obtain combination data, two master plates were diluted into the assay plates. Following compound addition, assay plates were kept at 37° C. and 5% CO2 for 72 hours. Thirty microliters of ATPLite (Perkin Elmer) at room temperature was then added to each well. Final amount of ATP was quantified within 30 minutes using ATPLite luminescent read-out on an Envision 2103 Multilabel Reader (Perkin Elmer). Measurements were taken at the top of the well using a luminescence aperture and a read time of 0.1 seconds per well.
The Loewe additivity model was used to quantify combination effects. Combinations were ranked initially by Additivity Excess Volume, which is defined as ADD Volume=ΣCX, CY (Idata−ILoewe). where ILoewe(CX, CY) is the inhibition that satisfies (CX/ECX)+(CY/ECY)=1, and ECX,Y are the effective concentrations at ILoewe for the single agent curves. A “Synergy Score” was also used, where the Synergy Score S=log fX log fY ΣIdata(Idata−ILoewe), summed over all non-single-agent concentration pairs, and where log fX,Y is the natural logarithm of the dilution factors used for each single agent. This effectively calculates a volume between the measured and Loewe additive response surfaces, weighted towards high inhibition and corrected for varying dilution factors. An uncertainty σS was calculated for each synergy score, based on the measured errors for the Idata values and standard error propagation.

[3] = tested on: H929 multiple myeloma cell line; experiment: Anti-proliferation assay (ATPLite, 72 h); assay type: cell-based, human; design: key: S = lnfX·lnfY·ΣIdata(Idata−ILoewe), volume over Loewe additivity
Outline: as §1

[4] = tested on: RPMI-8226 multiple myeloma cell line; experiment: Anti-proliferation assay (ATPLite, 72 h); assay type: cell-based, human; design: key: S = lnfX·lnfY·ΣIdata(Idata−ILoewe), volume over Loewe additivity
Outline: as §1

[5] = Homo sapiens, MM1.S, 10 ng/mL IL-6, Trequinsin conc. (μM), read-out: percent inhibition of ATP in MM.1S cells
[6] = Homo sapiens, MM1.S, no IL-6, Trequinsin conc. (μM), read-out: percent inhibition of ATP in MM.1S cells

Compound: NCCNC(=O)Cc1ccc(NC(=O)Cc2ccc(Nc3ncnc4c3ncn4[C@@H]3O[C@H](CO)[C@@H](O)[C@H]3O)cc2)cc1 [ADAC, N-(4-(2-((4-(2-((2-aminoethyl)amino)-2-oxoethyl)phenyl)amino)-2-oxoethyl)phenyl)-Adenosine]
- inhibition at 1.17 µM [1, 5]: 79%
- inhibition at 3.51 µM [1, 5]: 81%
- inhibition at 10.5 µM [1, 5]: 85%
- inhibition at 31.6 µM [1, 5]: 83%
- inhibition at […] ([1]; Homo sapiens, MM1.S, 10 ng/mL IL-6, ADAC […], Trequinsin conc. (μM), read-out: percent inhibition of ATP in MM.1S cells): 61%
- inhibition at 1.975 µM ([1]; Homo sapiens, MM1.S, ADAC 1.975 μM, Trequinsin Hydrochloride conc. (μM), read-out: Percent inhibition of ATP in MM.1S cells): 37%
- inhibition at 3.95 µM ([1]; Homo sapiens, MM1.S, ADAC 3.95 μM, Trequinsin Hydrochloride conc. (μM), read-out: Percent inhibition of ATP in MM.1S cells): 49%
- inhibition at 15.8 µM ([1]; Homo sapiens, MM1.S, ADAC 15.8 μM, Trequinsin Hydrochloride conc. (μM), read-out: Percent inhibition of ATP in MM.1S cells): 66%
- inhibition at 31.6 µM ([1]; Homo sapiens, MM1.S, Trequinsin Hydrochloride conc. (μM), read-out: Percent inhibition of ATP in MM.1S cells): 60%
- inhibition at 1.17 µM [1, 6]: 49%
- inhibition at 3.51 µM [1, 6]: 57%
- inhibition at 10.5 µM [1, 6]: 66%
- inhibition at 31.6 µM [1, 6]: 60%
- activity and synergy of adenosine receptor agonists [2]: active and synergistic

Compound: CCCCC#Cc1nc(N)c2ncn([C@@H]3O[C@H](C(=O)NCC)[C@@H](O)[C@H]3O)c2n1 [HE-NECA, hexynyladenosine-5′-N-ethylcarboxamide]
- percent inhibition of ATP in MM.1S cells ([1]; HE-NECA 0.0251 μM alone (trequinsin 0), 72 h): 78%
- percent inhibition of ATP in MM.1S cells ([1]; HE-NECA 0.0752 μM alone (trequinsin 0), 72 h): 79%
- percent inhibition of ATP in MM.1S cells ([1]; HE-NECA 0.226 μM alone (trequinsin 0), 72 h): 83%
- percent inhibition of ATP in MM.1S cells ([1]; HE-NECA 0.677 μM alone (trequinsin 0), 72 h): 80%
- percent inhibition of ATP in MM.1S cells ([1]; HE-NECA 2.03 μM alone (trequinsin 0), 72 h): 86%
- activity and synergy of adenosine receptor agonists [2]: active and synergistic

Compound: COc1cc2c(cc1OC)-c1cc(=Nc3c(C)cc(C)cc3C)n(C)c(=O)n1CC2 [Trequinsin hydrochloride, 2,3,6,7-tetrahydro-9,10-dimethoxy-3-methyl-2-((2,4,6-trimethylphenyl)imino)-4H-pyrimido(6,1-a)isoquinolin-4-one]
- synergy (score), PDEi × HE-NECA ([1]; 6×6 cross of PDE inhibitor or PDE inhibitor mixture with HE-NECA, MM.1S): 5.7
- inhibition at 0.377 µM ([1]; Homo sapiens, MM1.S, 10 ng/mL IL-6, Trequinsin 0.377 μM, HE-NECA conc. (nM), read-out: percent inhibition of ATP in MM.1S cells): -1.2%
- inhibition at 1.13 µM ([1]; Homo sapiens, MM1.S, 10 ng/mL IL-6, Trequinsin 1.13 μM, HE-NECA conc. (nM), read-out: percent inhibition of ATP in MM.1S cells): 5.1%
- inhibition at 3.39 µM ([1]; Homo sapiens, MM1.S, 10 ng/mL IL-6, Trequinsin 3.39 μM, HE-NECA conc. (nM), read-out: percent inhibition of ATP in MM.1S cells): 8.9%
- inhibition at 10.2 µM ([1]; Homo sapiens, MM1.S, 10 ng/mL IL-6, Trequinsin 10.2 μM, HE-NECA conc. (nM), read-out: percent inhibition of ATP in MM.1S cells): 26%
- inhibition at 30.5 µM ([1]; Homo sapiens, MM1.S, 10 ng/mL IL-6, Trequinsin 30.5 μM, HE-NECA conc. (nM), read-out: percent inhibition of ATP in MM.1S cells): 95%
- inhibition at 0.377 µM ([1]; Homo sapiens, MM1.S, 72 h, trequinsin 0.377 μM alone (HE-NECA 0), 72 h, read-out: Percent inhibition of ATP in MM.1S cells): 7.4%
- inhibition at 1.13 µM ([1]; Homo sapiens, MM1.S, 72 h, trequinsin 1.13 μM alone (HE-NECA 0), 72 h, read-out: Percent inhibition of ATP in MM.1S cells): 0.96%
- inhibition at 3.39 µM ([1]; Homo sapiens, MM1.S, 72 h, trequinsin 3.39 μM alone (HE-NECA 0), 72 h, read-out: Percent inhibition of ATP in MM.1S cells): 10%
- inhibition at 10.17 µM ([1]; Homo sapiens, MM1.S, 72 h, trequinsin 10.17 μM alone (HE-NECA 0), 72 h, read-out: Percent inhibition of ATP in MM.1S cells): 26%
- inhibition at 30.5 µM ([1]; Homo sapiens, MM1.S, 72 h, trequinsin 30.5 μM alone (HE-NECA 0), 72 h, read-out: Percent inhibition of ATP in MM.1S cells): 68%
- synergy score ([1]; PDE inhibitor crossed with (S) ENBA, MM.1S): 4.56
- synergy score ([1]; PDE inhibitor crossed with ADAC, MM.1S): 6.62
- synergy score ([1]; PDE inhibitor crossed with Chloro-IB-MECA, MM.1S): 5.95
- synergy score ([1]; PDE inhibitor crossed with HE-NECA, MM.1S): 7.85
- synergy score ([1]; in combination with adenosine receptor agonist ADAC, MM.1S): 6.619
- synergy score ([1]; in combination with adenosine receptor agonist CGS-21680, MM.1S): 6.26
- synergy score ([1]; in combination with adenosine receptor agonist HE-NECA, MM.1S): 7.235
- synergy score ([1]; in combination with adenosine receptor agonist regadenoson, MM.1S): 1.85
- rank of synergy scores among PDE inhibitors ([2]; crossed with adenosine receptor agonists): highest synergy scores
- synergy (score), PDEi × HE-NECA ([3]; 6×6 cross of PDE inhibitor or PDE inhibitor mixture with HE-NECA, H929): 4.22
- synergy score ([3]; PDE inhibitor crossed with (S) ENBA, H929): 3.38
- synergy score ([3]; PDE inhibitor crossed with ADAC, H929): 3.04
- synergy score ([3]; PDE inhibitor crossed with Chloro-IB-MECA, H929): 2.77
- synergy score ([3]; PDE inhibitor crossed with HE-NECA, H929): 4.34
- synergy score ([3]; in combination with adenosine receptor agonist ADAC, H929): 3.044
- synergy score ([3]; in combination with adenosine receptor agonist CGS-21680, H929): 3.33
- synergy score ([3]; in combination with adenosine receptor agonist HE-NECA, H929): 3.141
- synergy score ([3]; in combination with adenosine receptor agonist regadenoson, H929): 1.99
- synergy score ([4]; in combination with adenosine receptor agonist ADAC, RPMI-8226): 0.9183
- synergy score ([4]; in combination with adenosine receptor agonist CGS-21680, RPMI 8226): 0.72
- synergy score ([4]; in combination with adenosine receptor agonist HE-NECA, RPMI-8226): 0.793
- synergy score ([4]; in combination with adenosine receptor agonist regadenoson, RPMI 8226): 0.4
